In patent publication US20120015390A1, “Methods for the Detection and Treatment of Aberrant Prion Disease” (PROTEA BIOPHARMA N.V., priority 2009, published 2012):
Several values for one entry are separate records, joined by “and”; a condition that tells them apart may be missing. Equal entries are not always repeated.

Assays:
[1] = system: aberrant membrane NADH oxidase; type: cell-based
[2] = system: NADH oxidase; type: cell-based
[3] = system: NADH-oxidase; conditions: in vivo

Compound	CPM NADH hypotoon [1] [CPM]	CPM NADH isotoon [1] [CPM]	CPM iso/hypo [1]	chemiluminescence response after addition of substance and hypotonic NADH [2]	chemiluminescence response after addition of substance and isotonic NADH [2]	isotonic NADH induced lucigenin-dependent chemiluminescence in urine [3]	induction of aberrant NADH-oxidase (higher counts under isotonic conditions) [1]	CPM [2]	formation of cell surface associated aberrant NADH oxidase [2]
[Cl][Cd][Cl] [CdCl2]	376	114	0.30						
C[S+](C)[O-] [DMSO]				significant concentration-dependent increase	not observed	increases			
[Cl][Ni][Cl] [NiCl2]	860	913	1.06				suggest induction of aberrant NADH-oxidase		
O=[N+]([O-])[O-].O=[N+]([O-])[O-].[Pb+2] [Pb(NO3)2]	817	1402	1.71				suggest induction of aberrant NADH-oxidase		
C[CH2][Hg][S]c1ccccc1C(=O)[O-].[Na+] [Thimerosal]	3338	2380	0.71						
Heparin				significant concentration-dependent increase	not observed			17740 CPM and 15303 CPM and 14082 CPM and 10372 CPM and 9192 CPM	
HgCl2	18	101	5.61				suggest induction of aberrant NADH-oxidase		induces the formation of cell surface associated aberrant NADH oxidase
